Test results from patent US20250064890A1, “PROTEIN COMPOSITIONS FOR THE TREATMENT OF INFLAMMATORY DISEASES” (Unichem Laboratories Limited, priority 2021, published 2025).

What was measured:
Assay type in all cases: cell-based, human
MMP-8 = test: Multiplex analysis, radiotherapy, TR146
Description: (§1) Oral buccal mucosal cells (TR146) cells were incubated overnight at 37° C. in 5% CO2 incubator. […] The cells were then stimulated with 5-FU (10 mM) for another 24h for chemotherapy and with gamma radiation (3.5 kGy) using Cobalt 60 for radiotherapy. After 24 h, cell culture supernatants were collected from each well and stored at −20° C. till multiplex analysis. For NF-kB estimations, cell lysates were prepared. Levels of biomarkers were estimated using Magpix® multiplex machine. The cells treated with Amifostine (along with 5-FU or radiation) were considered as positive control (PC). Untreated cells (5-FU or radiation alone treated) were used as negative control (NC).
(§2) The percent modulation in each sample was determined as follows:
(§3) [{Concentration of biomarkers (pg/ml) in Control cells (5-FU or radiation alone treated)−Concentration of biomarkers (pg/ml) in SEQ ID NO: 2+5-FU or radiation treated cells)}/Concentration of biomarkers (pg/ml) in Control cells (5-FU or radiation alone treated)]*100

RAGE = test: Multiplex analysis, radiotherapy, TR146
Description: as §1, §2, §3

IL-1β = test: Multiplex analysis, radiotherapy, TR146
Description: as §1, §2, §3

VEGF = test: Multiplex analysis, radiotherapy, TR146
Description: as §1, §2, §3

CCL-2 = test: Multiplex analysis, radiotherapy, TR146
Description: as §1, §2, §3

TNF-α = test: Multiplex analysis, radiotherapy, TR146
Description: as §1, §2, §3

IL-6 = test: Multiplex analysis, radiotherapy, TR146
Description: as §1, §2, §3

MMP-3 = test: Multiplex analysis, radiotherapy, TR146
Description: as §1, §2, §3

[1] = test system: oral (buccal) mucosa cells (TR146); test: Annexin positive cell population against 5-FU damage
[2] = test system: oral (buccal) mucosa cells (TR146); test: Sub(G0/G1) cell population (cell cycle) against 5-FU induced damage; conditions: for % Decrease in Apoptotic cells (with respect to control): Sub G0/G1
Description: (§4) To determine the effect of test item on cell cycle, oral buccal mucosal cells (TR146) were incubated overnight in 5% CO2 incubator at 37° C. for 24 h. […] After 24 h of treatment, cells were exposed to chemotherapy (5-FU 10 mM) for 24 h or radiotherapy (Gamma radiation (3.5 kGy) using Cobalt 60) for 2 h.
(§5) After incubation, cells were harvested by trypsinization and processed for Cell cycle assay. Accordingly, cells were harvested into prelabeled centrifuge tubes and centrifuged at 450 g for 5 min at room temperature (RT, low brake). The supernatants were removed carefully and discarded. 1 ml of 1× phosphate buffer saline (PBS) was added to the pellet and resuspended gently to make homogenous suspension. Cells were centrifuged at 450 g for 5 min, RT (low brake). The supernatant was carefully removed leaving behind approx. 100 μl of PBS. Cells were resuspended gently yet thoroughly in residual PBS. Ice-cold 70% ethanol (100 μl) was added drop-wise into cells in each tube while vortexing at low speed (fixation step). Cells stored at 4° C. for 24 h were centrifuged at 450 g for 5 min, RT (low brake). The supernatant was carefully removed without touching the pellet and discarded. 1 ml of 1×PBS was added into pellet and resuspended gently. Cells were incubated for 1 minute at RT. Cells were centrifuged at 450 g for 5 min, RT (low brake). The supernatant was removed carefully without touching the pellet, leaving behind approx. 20-50 μl of PBS. 200 μl of cell cycle reagent was added into each tube. Cells were resuspended gently and mixed. Cells were incubated for 30 min at RT in the dark. The stained samples were transferred into 96-well plates and acquired on flow cytometer (Guava technologies). Percentage of cells in Sub (G0/G1) phase were determined based on the concept that cell cycle reagent contains PI stain, which stains DNA of cells in different phases of cell cycle; Sub (G0/G1), G1, S, G2 and M. Cells in Sub (G0/G1) phase correspond to apoptotic cells. Percent inhibition in apoptotic cells is determined by the formula:
(§6) =[(% Sub(G0/G1) cells in 5-FU/radiation alone)−(% Sub(G0/G1) cells in TI+5-FU/radiation)/% Sub(G0/G1) cells in 5-FU/radiation alone]*100

[3] = test system: oral (buccal) mucosa cells (TR146); test: Sub(G0/G1) cell population (cell cycle) against radiation induced damage; conditions: for % Decrease in Apoptotic cells (with respect to control): Sub G0/G1
Description: as §4, §5, §6

[4] = 0.1 μg/ml + Radiation (3.5 kGy)

For `NCCCNCCSP(=O)(O)O` [Amifostine, reference compound], which “Percentage Inhibition MMP-8” value (MMP-8; [4]) is on record?
The value was 3.6%.

And the “Percentage Inhibition MMP-8” value (MMP-8; 10 μg/ml + Radiation (3.5 kGy))?
The value was 13%.

What about the “Percentage Inhibition RAGE” value (RAGE; [4]) of the same compound?
The value was 45.1%.

What about the “Percentage Inhibition RAGE” value (RAGE; 10 μg/ml + Radiation (3.5 kGy)) of the same compound?
Its value is 40.3%.

And the “Percentage Inhibition IL-1β” value (IL-1β; [4])?
Its value is 10.7%.

And the “Percentage Inhibition IL-1β” value (IL-1β; 10 μg/ml + Radiation (3.5 kGy))?
The value was 12.1%.

And the “Percentage Inhibition VGEF” value (VEGF; [4])?
The value was 10.3%.

And the “Percentage Inhibition VGEF” value (VEGF; 10 μg/ml + Radiation (3.5 kGy))?
Its value is 7.2%.

What about the “Percentage Inhibition CCL-2” value (CCL-2; [4]) of the same compound?
Its value is 23.1%.

And the “Percentage Inhibition CCL-2” value (CCL-2; 10 μg/ml + Radiation (3.5 kGy))?
The value was 0.1%.

What about the “Percentage Inhibition TNF-α” value (TNF-α; [4]) of the same compound?
Its value is 49.3%.

What about the “Percentage Inhibition TNF-α” value (TNF-α; 10 μg/ml + Radiation (3.5 kGy)) of the same compound?
Its value is 44.3%.

And the “Percentage Inhibition IL-6” value (IL-6; [4])?
The value was 14.2%.

And the “Percentage Inhibition IL-6” value (IL-6; 10 μg/ml + Radiation (3.5 kGy))?
The value was 1.3%.

What about the “Percentage Inhibition MMP-3” value (MMP-3; [4]) of the same compound?
Its value is 51.9%.

And the “Percentage Inhibition MMP-3” value (MMP-3; 10 μg/ml + Radiation (3.5 kGy))?
Its value is 47.4%.

What about the “% Apoptotic cells (Annexin +ve)” value ([1]; 1 μg/ml + 5FU (10 mM)) of the same compound?
The value was 2.4%.

What about the “% Decrease in Apoptotic cells (with respect to 5-FU)” value (“% Decrease … (with respect to 5-FU)” for short) ([1]; 1 μg/ml + 5FU (10 mM)) of the same compound?
Its value is 85.7%.

And the “% Apoptotic cells (Annexin +ve)” value ([1]; 10 μg/ml + 5FU (10 mM))?
Its value is 2.6%.

What about the “% Decrease … (with respect to 5-FU)” value ([1]; 10 μg/ml + 5FU (10 mM)) of the same compound?
Its value is 84.5%.

What about the “% Apoptotic cells (Annexin +ve)” value ([1]; 50 μg/ml + 5FU (10 mM)) of the same compound?
Its value is 2.8%.

And the “% Decrease … (with respect to 5-FU)” value ([1]; 50 μg/ml + 5FU (10 mM))?
Its value is 82.9%.

And the “% Apoptotic cells (Sub G0/G1)” value ([2]; 1 μg/ml + 5FU (10 mM))?
The value was 13%.

What about the “% Decrease in Apoptotic cells (with respect to control)” value (from here on “% Decrease … (with respect to control)”) ([2]; 1 μg/ml + 5FU (10 mM)) of the same compound?
The value was 58%.

What about the “% Apoptotic cells (Sub G0/G1)” value ([2]; 10 μg/ml + 5FU (10 mM)) of the same compound?
The value was 11.4%.

What about the “% Decrease … (with respect to control)” value ([2]; 10 μg/ml + 5FU (10 mM)) of the same compound?
Its value is 63.2%.

And the “% Apoptotic cells (Sub G0/G1)” value ([2]; 25 μg/ml + 5FU (10 mM))?
The value was 17%.

What about the “% Decrease … (with respect to control)” value ([2]; 25 μg/ml + 5FU (10 mM)) of the same compound?
The value was 45%.

And the “% Apoptotic cells (Sub G0/G1)” value ([2]; 50 μg/ml + 5FU (10 mM))?
The value was 15.1%.

And the “% Decrease … (with respect to control)” value ([2]; 50 μg/ml + 5FU (10 mM))?
Its value is 50.9%.

What about the “% Apoptotic cells (Sub G0/G1)” value [3, 4] of the same compound?
Its value is 19.4%.

What about the “% Decrease … (with respect to control)” value [3, 4] of the same compound?
The value was 45.1%.

And the “% Apoptotic cells (Sub G0/G1)” value ([3]; 1 μg/ml + Radiation (3.5 kGy))?
Its value is 21.8%.

And the “% Decrease … (with respect to control)” value ([3]; 1 μg/ml + Radiation (3.5 kGy))?
The value was 38.2%.

What about the “% Apoptotic cells (Sub G0/G1)” value ([3]; 10 μg/ml + Radiation (3.5 kGy)) of the same compound?
The value was 12.9%.

What about the “% Decrease … (with respect to control)” value ([3]; 10 μg/ml + Radiation (3.5 kGy)) of the same compound?
Its value is 63.5%.
